This is an account of results in patent US10071130B2, “Methods and compositions related to Hsp90 inhibitors and breast cancer” (The University of Chicago, priority 2013, dated 2018).

Holding throughout (assay type): cell-based
Assay [1] relates to GR-α translational isoforms. As to the kind of experiment: Western blot of GR protein after Hsp90 inhibitor treatment of TNBC cell lines. To be noted: 50 nM, 8 hrs. The procedure:
(§1) TNBC cell lines were pre-treated for 2 hours with dexamethasone (100 nM) followed by ganetespib (50 nM). Protein and transcript levels were analyzed using Western blot and qRT-PCR respectively.

In another assay the test system is AR protein. As to the kind of experiment: Western blot of AR protein after Hsp90 inhibitor treatment of TNBC cell lines. The note with it: 50 nM, 8 hrs. The procedure:
as §1

A further assay concerns AR target gene TMPRSS2. Nature of the assay: qRT-PCR of AR target gene transcript. (In general: Quantitative PCR measures a nucleic acid by following its amplification.)
The subject of assay [2] is GR target genes in MDA-MB-231. As to the kind of experiment: Multiplex RT-PCR assay of GR target genes. To be noted: MDA-MB-231, Veh/Veh = 1. As for the experimental part:
The multiplex RT-PCR assay was performed to discover GR target genes that are affected by HSP90 inhibitor treatment of a triple-negative breast cancer cell line, MDA-MB-231.

Assay [3] relates to GR target gene transcripts (SGK1 and MKP1/DUSP1). Nature of the assay: qRT-PCR of GR target gene transcripts in TNBC cell lines. To be noted: 100 nM dex 2 hours, then ganetespib 50 nM. As for the experimental part:
as §1
This induction was reduced following ganetespib (50 nM) treatment.

With `CCNC(=O)c1noc(-c2cc(C(C)C)c(O)cc2O)c1-c1ccc(CN2CCOCC2)cc1` [NVP-AUY922], the “GR-α translational isoforms protein level” value in assay [1] was “depleted”. The AR protein level entry in the assay with AR protein is given as “depleted”.

For `C[C@]1(O)CC[C@H]2[C@@H]3CCC4=CC(=O)CCC4=C3C=C[C@@]21C` [R1881], the “Expression of the AR target gene TMPRSS2” value with AR target gene TMPRSS2 (R1881 1 nM pre-treatment for 2 hours) is given as “induced”.

Regarding `C[C@@H]1C[C@H]2[C@@H]3CCC4=CC(=O)C=C[C@]4(C)[C@@]3(F)[C@@H](O)C[C@]2(C)[C@@]1(O)C(=O)CO` [dexamethasone], in assay [2], the ANGPTL4 transcript level was found to be 8.5, the BCL6 transcript level was found to be 2.6, the CALCR transcript level is on record as 4.3 and the CEBPB transcript level came out at 4.1. Further, in assay [2], the DDIT4 transcript level is 2.9, the DUSP1 transcript level turned out to be 3.7, the EDN1 transcript level amounted to 2.3 and the ERRFI1 transcript level is on record as 3.4. In assay [2], this molecule had an FKBP5 transcript level of 15.5, a GLUL transcript level of 1.5, an IL6R transcript level of 1.9 and a KLF9 transcript level of 9.5. In assay [2], the KLF13 transcript level was 2.5, the LOX transcript level worked out at 2.4, the MT1E transcript level turned out to be 2.7 and the MT2A transcript level turned out to be 3.0. In addition, in assay [2], the NFKBIA transcript level is on record as 2.0, the PER1 transcript level came out at 12.7, the RHOB transcript level is given as 5.6 and the SESN1 transcript level was determined as 1.4. Also, in assay [2], the SGK1 transcript level was 2.9, the SLC19A2 transcript level is on record as 2.0, the SLC22A5 transcript level came to 1.3 and the TNFAIP3 transcript level was found to be 2.2. In assay [2], the TSC22D3 transcript level was determined as 22.8, the USP2 transcript level came to 3.1, the XDH transcript level turned out to be 1.3 and the ZFP36 transcript level is 4.3.

On to `CC(C)c1cc(-c2n[nH]c(=O)n2-c2ccc3c(ccn3C)c2)c(O)cc1O` [ganetespib], for which the “Androgen-induced expression of the AR target gene TMPRSS2” value in the assay on AR target gene TMPRSS2 (R1881 1 nM, concomitant ganetespib 50 nM) is on record as “decreased”. For the same molecule, the “Dexamethasone induction of GR target gene transcripts (SGK1 and MKP1/DUSP1)” value in assay [3] is given as “reduced”. The “GR-α translational isoforms protein level” value in assay [1] is “depleted”. The AR protein level result with AR protein is given as “depleted”.
